{"source": "patent US20230022796A1", "about": "(Merck Patent GmbH, priority 2019, published 2023)", "format_in_all_cases": "cell-based, Chinese hamster", "key": {"[1]": {"tested_on": "CHO cell line producing mAb2", "test": "Glycosylation profile (UPLC-MS of released glycans) of mAb2 from fed-batch", "conditions": "mAb2, 400 μM additive, day 12", "description": "(§1) Glycosylation patterns were analyzed by ultra-performance liquid chromatography coupled to a mass spectrometer (UPLC-MS). The purified antibody was denaturated and the glycans were released from the antibody by digestion with peptide N-glycosidase F (PNGase F) followed by labeling the glycans with the GlycoWorks™ RapiFluor-MS™ N-Glycan Kit according to the manufacturer protocol. For the analysis, an UPLC glycan column (2.1×150 mm) that separated the glycans according to their […] was used. The chromatography was performed at 45° C. using 50 mM ammonium formate (A), pH 4.4 solution and an acetonitrile (B) gradient. In detail, at the beginning the ratio of A:B was 20:80 (0 min) and changed to 27:73 at 3 min and 37:63 at 35 min at a flow rate of 0.5 ml/min. From 36.5 min to 39.5 min only A was used as mobile phase and the flow rate was reduced to 0.2 ml/min. Subsequently, the ratio was changed to 20% A:80% B and the flowrate was increased to 0.5 ml/min at 43.1 min until the end of the process at 55 min. The detection was performed by a fluorescence detector with an excitation wavelength of 265 nm and an emission wavelength of 425 nm. The identification of the glycan structures was performed by MS using positive electro spray ionization (ESI), which was calibrated every 30 s with a standard.\n(§2) Four different clones of Chinese hamster ovary (CHO) cells expressing three different monoclonal antibodies (mAb) and a fusion protein were tested. Cells were cultivated in spin tubes between 14 and 20 days at 37° C., 5% CO2, and 80% humidity. As starting cell density, 3×10^5 cells/mL in 30 mL Cellvento®4CHO media (pH 7.0±0.1) was used for clone 1 and 2 producing mAb1 and mAb2, respectively (Cellvento® Platform). Cells were cultivated at an agitation of 320 rpm and were fed on day 3, 5, 10, 12 and 14 with 3% volume of Cellvento® 4Feed (v/v) and on day 7 with 6% (v/v) of the feed. Clone 3 and 4 producing mAb3 and a fusion protein were inoculated at the same cell density in 30 mL Ex-Cell® Advanced Media (pH 7.2±0.1) while agitation was set to 230 rpm (Ex-Cell® Platform). Clones 3 and 4 were fed with […] Advanced Feed (v/v) on day 3, 5, 7, 10, 12, 14 and 17. […] The pH of all Cellvento® feeds was adjusted to 7.0±0.1 and Ex-Cell® Feeds were adjusted to 8.5±0.1. The glucose level was maintained above 4 g/L by adding a specific amount of a 400 g/L glucose stock solution on demand to up to 6 g/L during the week and up to 13 g/L over the weekend. Glucose and titer were detected in the supernatant with the bioprocess analyzer CEDEX Bio HT (Roche, Mannheim, Germany).\n(§3) To investigate the glycosylation profile during the fed-batch experiment samples were centrifugated and antibodies and Fc-fusion proteins were purified from the cell culture supernatant using protein A PhyTips® (PhyNexus Inc, San Jose, Calif.). Glycosylation patterns were analyzed as described by ultra-performance liquid chromatography coupled to a mass spectrometer (UPLC-MS) using the GlycoWorks™ RapiFluor-MS™ N-Glycan Kit.\nGlycosylation profile on day 12 was visualized since harvest of recombinant produced proteins on day 12 is common. Quantification of the glycans was obtained using the relative peak area of the fluorescence signal. Almost all peaks were assigned to glycan structures according to their mass. Unknown glycan structures and signals without mass detection were summarized as unknown species (not shown). […]"}, "[2]": {"tested_on": "CHO cell line producing mAb3", "test": "Glycosylation profile (UPLC-MS of released glycans) of mAb3 from fed-batch", "description": "as §1, §2, §3\nGlycosylation profile on day 12 was visualized since harvest of recombinant produced proteins on day 12 is common. Quantification of the glycans was obtained using the relative peak area of the fluorescence signal. Almost all peaks were assigned to glycan structures according to their mass. Unknown glycan structures and signals without mass detection were summarized as unknown species (not shown). Four different clones of Chinese hamster ovary (CHO) cells expressing three different monoclonal antibodies (mAb) and a fusion protein were tested. […] The known positive control achieved a […] level on day 12 by increasing the afucosylation to 78%. The same amount of afucosylation compared to the known fucose-analogue acetylated 2F-Fucose was only achieved by clone 3 expressing mAb3 leading to about […] on day 12 (FIG. 8 C). […]"}, "[3]": {"tested_on": "CHO cell line producing a fusion protein", "test": "Glycosylation profile (UPLC-MS of released glycans) of fusion protein from fed-batch", "conditions": "400 μM additive, day 12", "description": "as §1, §2, §3\nGlycosylation profile on day 12 was visualized since harvest of recombinant produced proteins on day 12 is common. Quantification of the glycans was obtained using the relative peak area of the fluorescence signal. Almost all peaks were assigned to glycan structures according to their mass. Unknown glycan structures and signals without mass detection were summarized as unknown species (not shown). Four different clones of Chinese hamster ovary (CHO) cells expressing three different monoclonal antibodies (mAb) and a fusion protein were tested. […] The known positive control achieved a 14% fucosylation level on day 12 by increasing the afucosylation to 78%. The same amount of afucosylation compared to the known fucose-analogue acetylated 2F-Fucose was only achieved by clone 3 expressing mAb3 leading to about 34% afucosylation on day 12 (FIG. 8 C)."}, "[4]": {"conditions": "mAb3, 400 μM additive, day 12, listed as ThioFuc"}, "[5]": {"conditions": "mAb3, 800 μM additive, day 12, listed as ThioFuc"}}}
{"smiles": "C[C@@H]1SC(O)[C@@H](O)[C@H](O)[C@@H]1O", "note": "(stereo partly shown)", "values": [{"measurement": "afucosylation", "setting": "[1]", "value": 60, "unit": "%"}, {"measurement": "core-fucosylation", "setting": "[1]", "value": 8, "unit": "%"}, {"measurement": "% Afucosylated", "setting": "[2]; mAb3, 50 μM additive, day 5", "value": 17.7, "unit": "%"}, {"measurement": "% Fucosylated", "setting": "[2]; mAb3, 50 μM additive, day 5", "value": 81.4, "unit": "%"}, {"measurement": "% fucose analogue (incorporated)", "setting": "[2]; mAb3, 50 μM additive, day 5", "value": 0.38, "unit": "%"}, {"measurement": "% Afucosylated", "setting": "[2]; mAb3, 50 μM additive, day 12", "value": 16.0, "unit": "%"}, {"measurement": "% Fucosylated", "setting": "[2]; mAb3, 50 μM additive, day 12", "value": 72.5, "unit": "%"}, {"measurement": "% fucose analogue (incorporated)", "setting": "[2]; mAb3, 50 μM additive, day 12", "value": "~11", "unit": "%"}, {"measurement": "% fucose analogue (incorporated)", "setting": "[2]; mAb3, 50 μM additive, day 12, listed as ThioFuc", "value": 10.7, "unit": "%"}, {"measurement": "% Afucosylated", "setting": "[2]; mAb3, 50 μM additive, day 14", "value": 16.1, "unit": "%"}, {"measurement": "% Fucosylated", "setting": "[2]; mAb3, 50 μM additive, day 14", "value": 69.9, "unit": "%"}, {"measurement": "% fucose analogue (incorporated)", "setting": "[2]; mAb3, 50 μM additive, day 14", "value": 13.6, "unit": "%"}, {"measurement": "% Afucosylated", "setting": "[2]; mAb3, 200 μM additive, day 5", "value": 22.1, "unit": "%"}, {"measurement": "% Fucosylated", "setting": "[2]; mAb3, 200 μM additive, day 5", "value": 62.9, "unit": "%"}, {"measurement": "% fucose analogue (incorporated)", "setting": "[2]; mAb3, 200 μM additive, day 5", "value": 14.5, "unit": "%"}, {"measurement": "% Afucosylated", "setting": "[2]; mAb3, 200 μM additive, day 12", "value": 30.1, "unit": "%"}, {"measurement": "% Fucosylated", "setting": "[2]; mAb3, 200 μM additive, day 12", "value": 33.3, "unit": "%"}, {"measurement": "% fucose analogue (incorporated)", "setting": "[2]; mAb3, 200 μM additive, day 12", "value": "~36", "unit": "%"}, {"measurement": "% fucose analogue (incorporated)", "setting": "[2]; mAb3, 200 μM additive, day 12, listed as ThioFuc", "value": 35.9, "unit": "%"}, {"measurement": "% Afucosylated", "setting": "[2]; mAb3, 200 μM additive, day 14", "value": 32.1, "unit": "%"}, {"measurement": "% Fucosylated", "setting": "[2]; mAb3, 200 μM additive, day 14", "value": 28.6, "unit": "%"}, {"measurement": "% fucose analogue (incorporated)", "setting": "[2]; mAb3, 200 μM additive, day 14", "value": 39.1, "unit": "%"}, {"measurement": "% Afucosylated", "setting": "[2]; mAb3, 400 μM additive, day 5", "value": 28.7, "unit": "%"}, {"measurement": "% Fucosylated", "setting": "[2]; mAb3, 400 μM additive, day 5", "value": "about 48%"}, {"measurement": "% fucose analogue (incorporated)", "setting": "[2]; mAb3, 400 μM additive, day 5", "value": 26.5, "unit": "%"}, {"measurement": "% Fucosylated", "setting": "[2]; mAb3, 400 μM additive, day 5, listed as ThioFuc", "value": 46.4, "unit": "%"}, {"measurement": "fucosylation level", "setting": "[2]; mAb3, 400 μM additive, day 7", "value": "about 34%"}, {"measurement": "fucosylation level", "setting": "[2]; mAb3, 400 μM additive, day 10", "value": "~25", "unit": "%"}, {"measurement": "% Fucosylated", "setting": "[2]; mAb3, 400 μM additive, day 12", "value": 21, "unit": "%"}, {"measurement": "% Afucosylated", "setting": "[2]; [4]", "value": 34.8, "unit": "%"}, {"measurement": "% Fucosylated", "setting": "[2]; [4]", "value": 20.9, "unit": "%"}, {"measurement": "% fucose analogue (incorporated)", "setting": "[2]; [4]", "value": 44.1, "unit": "%"}, {"measurement": "% Afucosylated", "setting": "[2]; mAb3, 400 μM additive, day 14", "value": 36.0, "unit": "%"}, {"measurement": "% Fucosylated", "setting": "[2]; mAb3, 400 μM additive, day 14", "value": "~18", "unit": "%"}, {"measurement": "% fucose analogue (incorporated)", "setting": "[2]; mAb3, 400 μM additive, day 14", "value": 46.2, "unit": "%"}, {"measurement": "% Fucosylated", "setting": "[2]; mAb3, 400 μM additive, day 14, listed as ThioFuc", "value": 17.7, "unit": "%"}, {"measurement": "% Afucosylated", "setting": "[2]; mAb3, 800 μM additive, day 5", "value": 32.3, "unit": "%"}, {"measurement": "% Fucosylated", "setting": "[2]; mAb3, 800 μM additive, day 5", "value": 40.4, "unit": "%"}, {"measurement": "% fucose analogue (incorporated)", "setting": "[2]; mAb3, 800 μM additive, day 5", "value": 31.7, "unit": "%"}, {"measurement": "% Afucosylated", "setting": "[2]; mAb3, 800 μM additive, day 12", "value": "about 36%"}, {"measurement": "% Fucosylated", "setting": "[2]; mAb3, 800 μM additive, day 12", "value": "about 15%"}, {"measurement": "% fucose analogue (incorporated)", "setting": "[2]; mAb3, 800 μM additive, day 12", "value": "about 48%"}, {"measurement": "reduction of fucosylation compared to the control", "setting": "[2]; mAb3, 800 μM additive, day 12", "value": "about 75%"}, {"measurement": "% Afucosylated", "setting": "[2]; [5]", "value": 36.4, "unit": "%"}, {"measurement": "% Fucosylated", "setting": "[2]; [5]", "value": 15.4, "unit": "%"}, {"measurement": "% fucose analogue (incorporated)", "setting": "[2]; [5]", "value": 47.8, "unit": "%"}, {"measurement": "% Afucosylated", "setting": "[2]; mAb3, 800 μM additive, day 14", "value": 38.0, "unit": "%"}, {"measurement": "% Fucosylated", "setting": "[2]; mAb3, 800 μM additive, day 14", "value": 12.5, "unit": "%"}, {"measurement": "% fucose analogue (incorporated)", "setting": "[2]; mAb3, 800 μM additive, day 14", "value": 49.3, "unit": "%"}, {"measurement": "afucosylation", "setting": "[3]", "value": 52, "unit": "%"}, {"measurement": "incorporation of fucose analogue (% of the glycans)", "setting": "[3]", "value": 39, "unit": "%"}, {"measurement": "reduction of core-fucosylation compared to the control", "setting": "[3]", "value": "about 63%"}]}
